The target of this experiment is T1, hSTING (Homo sapiens, UniProt Q86WV6, G230A/H232R/R293Q/R71H).
T1 construct: host or cells: THP1-Dual KO-IFNAR2 cells
T1 sequence (Q86WV6 whole entry R71H/G230A/H232R/R293Q): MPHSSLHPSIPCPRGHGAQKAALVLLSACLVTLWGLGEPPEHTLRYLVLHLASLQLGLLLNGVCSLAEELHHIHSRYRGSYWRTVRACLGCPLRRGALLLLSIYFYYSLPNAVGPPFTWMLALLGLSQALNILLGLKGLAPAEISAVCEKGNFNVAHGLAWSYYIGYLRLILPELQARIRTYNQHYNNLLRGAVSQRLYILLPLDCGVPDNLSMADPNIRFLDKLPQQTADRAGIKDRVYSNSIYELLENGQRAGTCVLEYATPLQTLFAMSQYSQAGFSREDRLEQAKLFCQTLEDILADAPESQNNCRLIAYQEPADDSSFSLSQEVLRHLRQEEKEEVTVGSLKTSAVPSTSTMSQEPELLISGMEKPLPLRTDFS
Description: STING reporter assay: THP1-Dual KO-IFNAR2 cells stimulated with 2′3′cGAMP, luciferase reporter activity. In kind it is cell-based. To be noted: 15 μM 2′3′cGAMP transfected with Lipofectamine 2000, 24 h, luciferase reporter (QUANTI-Luc). The method, then: STING pathway activation by the compounds described herein was measured using THP1-Dual™ cells (KO-IFNAR2).
THP1-Dual™ KO-IFNAR2 Cells (obtained from invivogen) were maintained in RPMI, 10% FCS, 5 ml P/S, 2 mM L-glut, 10 mM Hepes, and 1 mM sodium pyruvate. Compounds were spotted in empty 384 well tissue culture plates (Greiner 781182) by Echo for a final concentration of 0.0017-100 μM. Cells were plated into the TC plates at 40 μL per well, 2×10E6 cells/mL. For activation with STING ligand, 2′3′cGAMP (MW 718.38, obtained from Invivogen), was prepared in Optimem media.
The following solutions were prepared for each 1×384 plate: • Solution A: 2 mL Optimem with one of the following stimuli: • 60 μL of 10 mM 2′3′cGAMP→150 μM stock • Solution B: 2 mL Optimem with 60 μL Lipofectamine 2000→Incubate 5 min at RT
2 mL of solution A and 2 ml Solution B was mixed and incubated for 20 min at room temperature (RT). 20 μL of transfection solution (A+B) was added on top of the plated cells, with a final 2′3′cGAMP concentration of 15 μM. The plates were then centrifuged immediately at 340 g for 1 minute, after which they were incubated at 37° C., 5% CO2, >98% humidity for 24 h. Luciferase reporter activity was then measured. EC50 values were calculated by using standard methods known in the art.
Luciferase reporter assay: 10 μL of supernatant from the assay was transferred to white 384-plate with flat bottom and squared wells. One pouch of QUANTI-Luc™ Plus was dissolved in 25 mL of water. 100 μL of QLC Stabilizer per 25 mL of QUANTI-Luc™Plus solution was added. 50 μL of QUANTI-Luc™ Plus/QLC solution per well was then added. Luminescence was measured on a Platereader (e.g., Spectramax I3X (Molecular Devices GF3637001)).
Luciferase reporter activity was then measured. EC50 values were calculated by using standard methods known in the art.
`O=C(Nc1c[nH]c2cc(F)ccc12)c1cn(Cc2ccc(C(F)(F)F)cc2)cn1` [Compound 104, N-(6-fluoro-1H-indol-3-yl)-1-(4-(trifluoromethyl)benzyl)-1H-imidazole-4-carboxamide] displayed a concentration for a half-maximal effect (EC50) of 200 to 1000 nM. For the compound `CC(C)(O)CCc1ncc(-n2cc(C(=O)Nc3c[nH]c4cc(F)c(F)cc34)nn2)cc1F` [Compound 179, N-(5,6-difluoro-1H-indol-3-yl)-1-[5-fluoro-6-(3-hydroxy-3-methylbutyl)pyridin-3-yl]-1H-1,2,3-triazole-4-carboxamide], the EC50 fell in the range of 5000 to 100000 nM. The figure for `O=C(Nc1c[nH]c2ccccc12)c1cn(-c2ccc(C(F)(F)F)c(Cl)c2)cn1` [Compound 135, 1-(3-chloro-4-(trifluoromethyl)phenyl)-N-(1H-indol-3-yl)-1H-imidazole-4-carboxamide] is 200 to 1000 nM; for `O=C(Nc1c[nH]c2ccc(Cl)cc12)c1cn(-c2cnc(OCC(F)(F)F)c(F)c2)nn1` [Compound 159, N-(5-chloro-1H-indol-3-yl)-1-(5-fluoro-6-(2,2,2-trifluoroethoxy)pyridin-3-yl)-1H-1,2,3-triazole-4-carboxamide] it is 200 to 1000 nM. The figure for `Cc1cc(-c2cc(C(=O)Nc3c[nH]c4cc(F)c(F)cc34)n[nH]2)ccc1Cl` [Compound 164, 5-(4-chloro-3-methylphenyl)-N-(5,6-difluoro-1H-indol-3-yl)-1H-pyrazole-3-carboxamide] is 200 to 1000 nM; for `O=C(Nc1c[nH]c2cc(F)c(F)cc12)c1cc(-c2ccc(Cl)cc2)n[nH]1` [Compound 108, 3-(4-chlorophenyl)-N-(5,6-difluoro-1H-indol-3-yl)-1H-pyrazole-5-carboxamide] it is 200 to 1000 nM; for `O=C(Nc1c[nH]c2cc(F)c(F)cc12)c1cnn(CC2CCC(F)(F)CC2)c1` [Compound 122, N-(5,6-difluoro-1H-indol-3-yl)-1-((4,4-difluorocyclohexyl)methyl)-1H-pyrazole-4-carboxamide] it is 200 to 1000 nM. To `O=C(Nc1c[nH]c2ccccc12)c1ncc(-c2ccc(C(F)(F)F)cc2)[nH]1` [Compound 129, N-(1H-indol-3-yl)-5-(4-(trifluoromethyl)phenyl)-1H-imidazole-2-carboxamide] belongs 200 to 1000 nM; to `O=C(Nc1c[nH]c2ccccc12)c1cn(Cc2ccc(C(F)(F)F)cn2)cn1` [Compound 130, N-(1H-indol-3-yl)-1-((5-(trifluoromethyl)pyridin-2-yl)methyl)-1H-imidazole-4-carboxamide], 1000 to 5000 nM; to `Cc1cc(C(=O)Nc2c[nH]c3cc(F)c(F)cc23)nn1C1CCCCC1` [Compound 140, 1-cyclohexyl-N-(5,6-difluoro-1H-indol-3-yl)-5-methyl-1H-pyrazole-3-carboxamide], 5000 to 100000 nM.

With `O=C(Nc1c[nH]c2cnccc12)c1cnn(Cc2ccc(C(F)(F)F)cc2)c1` [Compound 144], the EC50 was 5000 to 100000 nM.

The compound `O=C(Nc1c[nH]c2cc(F)c(F)cc12)c1cc(Cc2ccc(C(F)(F)F)cc2)on1` [Compound 153, N-(5,6-difluoro-1H-indol-3-yl)-5-(4-(trifluoromethyl)benzyl)isoxazole-3-carboxamide] gave an EC50 of 200 to 1000 nM. To `CC(C)n1cc(-c2ccc3[nH]cc(NC(=O)c4cn(-c5ccc(C(F)(F)F)cc5)cn4)c3c2)cn1` [Compound 139, N-(5-(1-isopropyl-1H-pyrazol-4-yl)-1H-indol-3-yl)-1-(4-(trifluoromethyl)phenyl)-1H-imidazole-4-carboxamide] belongs 200 to 1000 nM. To `N#Cc1cccc(-c2cc(C(=O)Nc3c[nH]c4cc(F)c(F)cc34)no2)c1` [Compound 123, 5-(3-cyanophenyl)-N-(5,6-difluoro-1H-indol-3-yl)isoxazole-3-carboxamide] belongs 200 to 1000 nM. The figure for `COc1cc2[nH]cc(NC(=O)c3cnn(Cc4ccc(C(F)(F)F)cc4)c3)c2cn1` [Compound 126, N-(6-methoxy-1H-pyrrolo[3,2-c]pyridin-3-yl)-1-(4-(trifluoromethyl)benzyl)-1H-pyrazole-4-carboxamide] is 1000 to 5000 nM; for `O=C(Nc1c[nH]c2cc(F)c(F)cc12)c1cc(-c2ccncc2)[nH]n1` [Compound 176, N-(5,6-difluoro-1H-indol-3-yl)-5-(pyridin-4-yl)-1H-pyrazole-3-carboxamide] it is 5000 to 100000 nM; for `Cc1cc(C(=O)Nc2c[nH]c3cc(F)c(F)cc23)nn1Cc1ccc(C(F)(F)F)cc1` [Compound 114, N-(5,6-difluoro-1H-indol-3-yl)-5-methyl-1-(4-(trifluoromethyl)benzyl)-1H-pyrazole-3-carboxamide] it is 200 to 1000 nM. With `O=C(Nc1c[nH]c2cc(F)c(F)cc12)c1cc(-c2ccccn2)on1` [Compound 109, N-(5,6-difluoro-1H-indol-3-yl)-5-(pyridin-2-yl)-1,2-oxazole-3-carboxamide], the EC50 fell in the range of 200 to 1000 nM.

For `O=C(Nc1c[nH]c2cc(F)c(F)cc12)c1cc(CC2CCN(CC(F)(F)F)CC2)on1` [Compound 152, N-(5,6-difluoro-1H-indol-3-yl)-5-((1-(2,2,2-trifluoroethyl)piperidin-4-yl)methyl)isoxazole-3-carboxamide], the 50% effective concentration (EC50) was in the range of 200 to 1000 nM.

The values are drawn from US20230271941A1, “COMPOUNDS AND COMPOSITIONS FOR TREATING CONDITIONS ASSOCIATED WITH STING ACTIVITY” (IFM Due, Inc., priority 2020, published 2023).
